The source of these data is patent US20240183842A1, “Supercharged Biovesicles and Methods of Use Thereof” (The General Hospital Corporation, priority 2021, published 2024).

In one experiment the test system is HEK293T cells. Briefly: Inhibitor pretreatment before Bodipy TR-scEV uptake, flow cytometry. Format: cell-based, human. The following applies: for Bodipy TR fluorescence in recipient cells (scEV uptake) compared to sham / +scProtein fluorescence levels compared to sham: 1 h pretreatment, 24 h Bodipy TR-scEVs, CHL 10 μM, Bort 5 μM; for Bodipy TR fluorescence in recipient cells (scEV uptake) compared to sham: ConA 200 nM, Baf 200 nM. The method, then: For inhibitor treatment before scEV uptake, HEK293T cells (50,000 cells per well) were seeded in 24-well culture plates (Falcon) for 24 h in DMEM with serum. The cells were then pre-incubated with the inhibitors in Optimem without serum. […] The labelled EVs (10^7-10^8 particles) were added each well for 24 h in the presence of the indicated inhibitors. Following incubation, cells were trypsinized and analyzed based on scProtein and Bodipy TR fluorescence on a Beckman SORP 5 Laser BD Fortessa Flow Cytometer in the MGH core facility.
FLOW CYTOMETRY. Flow cytometric analysis was performed on the Beckman SORP 5 Laser BD Fortessa Flow Cytometer in the MGH core facility. Forward and side scatter signals were used to distinguish live cells from polystyrene beads. Proper gating was performed to identify positive fluorescent signals compared to non-stained or single stained controls.

Experiment [1] addresses Flag-Tag affinity beads (antibody based magnetic beads). Briefly: elution of bead-bound NoMi-EVs with free Flag peptide, nanoluciferase bioluminescence read-out.

Turning to `C/C=C/[C@H]1O[C@@](O)([C@@H](C)[C@H](O)[C@H](C)[C@H]2OC(=O)/C(OC)=C/C(C)=C/[C@@H](C)[C@@H](O)[C@@H](CC)[C@@H](O)[C@H](C)C/C(C)=C/C=C/[C@@H]2OC)C[C@@H](O[C@H]2C[C@@H](O)[C@H](OC(N)=O)[C@@H](C)O2)[C@@H]1C` [concanamycin A], the “Bodipy TR fluorescence in recipient cells (scEV uptake) compared to sham” value (“Bodipy TR fluorescence … compared to sham” below) with HEK293T cells is given as “No significant decrease”.

`CC(C)C[C@H](NC(=O)[C@H](Cc1ccccc1)NC(=O)c1cnccn1)B(O)O` [Bortezomib]: in the experiment on HEK293T cells, the “+scProtein fluorescence levels compared to sham” value was “increase” and the “Bodipy TR fluorescence … compared to sham” value is on record as “increased scEV uptake”. Besides, in the experiment on HEK293T cells (Bort combined with Baf or ConA), the “+scProtein fluorescence in combination with Baf and ConA” value was “increased”.

For the molecule `CCN(CC)CCCC(C)Nc1ccnc2cc(Cl)ccc12` (centres unmarked) [Chloroquine], in the experiment on HEK293T cells, the “+scProtein fluorescence levels compared to sham” value is listed as “increase” and the “Bodipy TR fluorescence … compared to sham” value was “significantly increase”.

With `CO/C1=C\C(C)=C\[C@@H](C)[C@@H](O)[C@@H](C)C/C(C)=C/C=C/[C@H](OC)[C@@H]([C@@H](C)[C@@H](O)[C@H](C)[C@@]2(O)C[C@@H](O)[C@H](C)[C@@H](C(C)C)O2)OC1=O` [Bafilomycin A1], in the experiment on HEK293T cells, the “Bodipy TR fluorescence … compared to sham” value is on record as “No significant decrease”.

B1: Flag-Tag peptide (peptide)
peptide: DYDKDDDK
For the molecule B1, in experiment [1], the percent of EVs recovered from the beads by peptide elution turned out to be 75%.
